One assay relates to P. aeruginosa ATCC 27853. The assay is classed as cell-based, Pseudomonas aeruginosa. Here is the method:
(§1) The inhibition of representative microorganisms by peptides was evaluated by the modified broth dilution technique. The microorganisms included Candida albicans (C. albicans, NCTC 10231), Enterococcus faecalis (E. faecalis, NCTC 12697), Staphylococcus aureus (S. aureus, NCTC 10788), Klebsiella pneumoniae (K. pneumoniae, ATCC 43816), Methicillin-resistant Staphylococcus aureus (MRSA, ATCC 12493), Pseudomonas aeruginosa (P. aeruginosa, ATCC 27853), and Escherichia coli (E. coli, NCTC 10418).
(§2) Firstly, the selected microorganism was incubated in conical flasks with 100 mL Mueller Hinton broth (MHB) overnight. Then, the bacterial solution was sub-cultured in 20 mL MHB until it reached the logarithmic growth phase. Meanwhile, the peptide solution was prepared. The peptide was dissolved into 128 × 10^2 μM solution with phosphate-buffered saline (PBS) and then double-diluted into 64, 32, 16, 8, 4, 2, and 1 × 10^2 μM. Each sample solution and positive control ([…] Norfloxacin) was added to 96-well plates and divided into five replicates, 1 μL per well. The blank control was 100 µL MHB, and the growth control was 100 µL bacterial solutions. When the optical density (OD) value corresponding to the microbial concentration reached the value (Gram-positive bacteria: 0.23; Gram-negative bacteria: 0.4; fungi: 0.15) in their logarithmic growth phase, the microorganisms were diluted to the required concentration with MHB (Gram-negative and Gram-positive bacteria: 5 × 10^5 CFU/mL; fungi: 1 × 10^6 CFU/mL).
(§3) The diluted bacterial solution was then added to the 96-well plate at 99 µL per well. The plate was incubated at 37 °C and observed the next day. The MIC was the corresponding lowest peptide concentration without microbial growth. The absorbance of the 96-well plate at 550 nm was measured by Synergy HT Microplate Spectrophotometer (Biotech, Minneapolis, MN, USA), and the obtained values were quantitatively analyzed by Prism 7 software. Subsequently, the concentrations corresponding to the clear solution were removed from the 96-well plate in 10 µL and dropped onto the solidified MHA. The Petri dishes with MHA were cultured overnight, observed and the minimum peptide concentration without colonies was MBC.

The test system of assay [1] is S. aureus NCTC 10788. The assay is classed as cell-based, Staphylococcus aureus. Here is the method:
As mentioned in the previous study, the salt and pH sensitivities of AMPs exposed to physiological concentrations of salts or non-neutral environments were tested. MHB containing different ion concentrations (150 mM NaCl, 1 mM MgCl2, and 4 μM FeCl3) and MHB with pH 6.0 and pH 8.0 were prepared. The selected microorganism Staphylococcus aureus (S. aureus, NCTC 10788) was incubated overnight in the prepared medium, sub-cultured to the logarithmic phase, and then diluted to 5 × 10^5 CFU/mL. The subsequent steps were carried out as the MIC/MBC assay.

A further assay deals with E. coli NCTC 10418. The assay is classed as cell-based, Escherichia coli. Here is the method: as §1, §2, §3
In assay [2] the test system is E. coli NCTC 10418 biofilm. The assay is classed as cell-based, Escherichia coli. The following applies: NCTC 10418, 24 h. Here is the method: (§4) As previously described, the MBIC and MBEC of the peptides against bacteria were determined. Staphylococcus aureus (S. aureus, NCTC 10788) and Escherichia coli (E. coli, NCTC 10418) was selected as representative strains. For the MBIC assay, the cultures were sub-cultured to their logarithmic growth phases. The diluted bacterial suspension was incubated with the peptide solution overnight in a 96-well plate. The resulting biofilm was washed with PBS solution, fixed with methanol, and dried. The biofilm was then stained with 0.1% (w/v) crystal violet, washed again with PBS, and dissolved in 30% acetic acid. The absorbance of the solution in each well at 595 nm was counted by the Synergy HT Microplate Spectrophotometer (Biotech, Minneapolis, MN, USA). Compared with the negative control, the lowest concentration that inhibits biofilm formation was MBIC. For the determination of MBEC, the diluted bacterial solution was incubated in the 96-well plate for 24 h, with 100 µL per well. Then, the biofilm was washed and re-incubated with 100 µL peptide-medium solution. After 24 h, the biofilm was again washed, stained, and dissolved as in the MBIC assay. Each well was detected at 595 nm by the same plate reader in MBIC. Compared with the negative control, the lowest concentration to eliminate biofilm was MBEC.

Assay [3] relates to S. aureus NCTC 10788. The assay is classed as cell-based, Staphylococcus aureus. The procedure: as §1, §2, §3
The source holds these as a separate data set.

A further assay concerns E. faecalis NCTC 12697. Type of assay: cell-based, Enterococcus faecalis. Here is the method: as §1, §2, §3
A further assay concerns C. albicans NCTC 10231. Type of assay: cell-based, Candida albicans. The procedure:
as §1, §2, §3

A further assay has as its system MRSA NCTC 12493. Type of assay: cell-based, Methicillin-resistant Staphylococcus aureus.
Another assay has as its system K. pneumoniae ATCC 43816. The assay is classed as cell-based, Klebsiella pneumoniae. Here is the method: as §1, §2, §3
Assay [4] has as its system S. aureus NCTC 10788 biofilm. Type of assay: cell-based, Staphylococcus aureus. The following applies: NCTC 10788, 24 h. The procedure: as §4

≈ marks a conversion by molar mass, not a printed value. Like-named read-outs stand apart in the source and are kept apart here. Where a SMILES comes first, the peptide text is derived from it. Some results are limits rather than exact numbers.

The MIC is the smallest concentration in the dilution series that meets the test's criterion for growth inhibition.

For `CC[C@H](C)[C@H](NC(=O)[C@H](C)NC(=O)[C@H](CCC(=O)O)NC(=O)[C@H](CCCCN)NC(=O)CNC(=O)[C@H](CC(C)C)NC(=O)[C@H](C)NC(=O)[C@H](CC(C)C)NC(=O)[C@H](C)NC(=O)[C@H](CC(C)C)NC(=O)[C@@H](N)Cc1ccccc1)C(=O)N[C@@H](C)C(=O)N[C@@H](CCCCN)C(=O)N[C@@H](CC(C)C)C(=O)N[C@@H](CCCCN)C(N)=O` [QUB-1585] (H-FLALALGKEAIAKLK-NH2), the MBC in the assay on P. aeruginosa ATCC 27853 is > 128 µM; in the assay with S. aureus NCTC 10788 [1] it was > 128 µM; with E. coli NCTC 10418, 128 µM; in the assay on S. aureus NCTC 10788 [3] it was 64 µM; in the assay with E. faecalis NCTC 12697 it was > 128 µM; with C. albicans NCTC 10231 it was 128 µM. For the same molecule, the values for the MBC in the assay on MRSA NCTC 12493 and in the assay on K. pneumoniae ATCC 43816 were 128 µM (≈ 203 µg/mL) and > 128 µM, respectively. The MIC in the assay with P. aeruginosa ATCC 27853 is > 128 µM; with E. coli NCTC 10418, 64 µM; in the assay on S. aureus NCTC 10788 [3], 32 µM; with E. faecalis NCTC 12697, 128 µM; in the assay on C. albicans NCTC 10231, 64 µM; in the assay on MRSA NCTC 12493, 64 µM (≈ 101 µg/mL). In addition, the MIC with K. pneumoniae ATCC 43816 is > 128 µM. For the same molecule, the MBEC in assay [2] is recorded as 128/128 µM; in assay [4], 128 µM. For the same molecule, the figures for the MBIC in assay [2] and in assay [4] were 128/128 µM and 64 µM, respectively.
As to `CC[C@H](C)[C@H](NC(=O)[C@H](C)NC(=O)[C@H](CCC(=O)O)NC(=O)[C@H](CCC(N)=O)NC(=O)[C@@H](NC(=O)[C@H](CC(C)C)NC(=O)[C@H](CCCCN)NC(=O)CNC(=O)[C@H](C)NC(=O)[C@H](CC(C)C)NC(=O)[C@@H](N)Cc1ccccc1)[C@@H](C)CC)C(=O)N[C@@H](C)C(=O)N[C@@H](CCCCN)C(=O)N[C@@H](CC(C)C)C(=O)N[C@@H](CCCCN)C(N)=O` [QUB-1643] (H-FLAGKLIQEAIAKLK-NH2), the MBC in the assay on P. aeruginosa ATCC 27853 is > 128 µM; in the assay on E. coli NCTC 10418, > 128 µM; in the assay with S. aureus NCTC 10788 [3] it was 64 µM; with E. faecalis NCTC 12697, > 128 µM; with C. albicans NCTC 10231, 128 µM; with MRSA NCTC 12493 it was 128 µM (≈ 210 µg/mL). For the same molecule, the MBC with K. pneumoniae ATCC 43816 is > 128 µM. Also, the minimal inhibitory concentration (MIC) with P. aeruginosa ATCC 27853 was > 128 µM; with E. coli NCTC 10418, 128 µM; in the assay on S. aureus NCTC 10788 [3], 32 µM; in the assay with E. faecalis NCTC 12697, 128 µM; in the assay on C. albicans NCTC 10231, 64 µM; in the assay on MRSA NCTC 12493, 64 µM (≈ 105 µg/mL). In the assay with K. pneumoniae ATCC 43816, the minimum inhibitory concentration (MIC) was > 128 µM. The values for the MBEC in assay [2] and in assay [4] were >128/>128 µM and 128/>128 µM, respectively. For the same molecule, the MBIC in assay [2] is >128/>128 µM; in assay [4] it was 128/>128 µM.
`CC[C@H](C)[C@H](NC(=O)[C@H](C)NC(=O)[C@H](CCCCN)NC(=O)[C@@H]1CCCN1C(=O)[C@@H](NC(=O)[C@H](CC(C)C)NC(=O)[C@H](C)NC(=O)[C@H](CC(C)C)NC(=O)[C@H](C)NC(=O)[C@H](CC(C)C)NC(=O)[C@@H](N)Cc1ccccc1)[C@@H](C)CC)C(=O)N[C@@H](C)C(=O)N[C@@H](CCCCN)C(=O)N[C@@H](CC(C)C)C(=O)N[C@@H](CCCCN)C(N)=O` [QUB-1609] (H-FLALALIPKAIAKLK-NH2): the MBC in the assay on P. aeruginosa ATCC 27853 is > 128 µM; in the assay on E. coli NCTC 10418 it was 64 µM; in the assay on S. aureus NCTC 10788 [3] it was 32 µM; in the assay with E. faecalis NCTC 12697 it was 64 µM; in the assay on C. albicans NCTC 10231 it was 32 µM; with MRSA NCTC 12493, 16 µM (≈ 25.7 µg/mL). Further, the MBC in the assay with K. pneumoniae ATCC 43816 was > 128 µM. Besides, the minimal inhibitory concentration (MIC) is > 128 µM with P. aeruginosa ATCC 27853; 8 µM in the assay on E. coli NCTC 10418; 8 µM in the assay on S. aureus NCTC 10788 [3]; 16 µM in the assay with E. faecalis NCTC 12697; 16 µM with C. albicans NCTC 10231; 8 µM (≈ 12.9 µg/mL) in the assay on MRSA NCTC 12493. For the same molecule, in the assay with K. pneumoniae ATCC 43816, the MIC came out at 128 µM. Further, the MBEC in [2] and in assay [4] was 128 µM in each case. Besides, the MBIC came to 64 µM in assay [2] and 16 µM in [4].
On to `CC[C@H](C)[C@H](NC(=O)[C@H](C)NC(=O)[C@H](CCCCN)NC(=O)CNC(=O)[C@@H](NC(=O)[C@H](CC(C)C)NC(=O)[C@H](C)NC(=O)[C@H](CC(C)C)NC(=O)[C@H](C)NC(=O)[C@H](CC(C)C)NC(=O)[C@@H](N)Cc1ccccc1)[C@@H](C)CC)C(=O)N[C@@H](C)C(=O)N[C@@H](CCCCN)C(=O)N[C@@H](CC(C)C)C(=O)N[C@@H](CCCCN)C(N)=O` [QUB-1570] (H-FLALALIGKAIAKLK-NH2), for which the MBC was > 128 µM in the assay on P. aeruginosa ATCC 27853; 32 µM with E. coli NCTC 10418; 8 µM in the assay on S. aureus NCTC 10788 [3]; 8 µM in the assay on E. faecalis NCTC 12697; 8 µM in the assay with C. albicans NCTC 10231; 8 µM (≈ 12.6 µg/mL) against MRSA NCTC 12493. In the assay with K. pneumoniae ATCC 43816, the MBC was determined as 32 µM. For the same molecule, the minimal inhibitory concentration (MIC) is > 128 µM in the assay on P. aeruginosa ATCC 27853; 16 µM in the assay with E. coli NCTC 10418; 2 µM with S. aureus NCTC 10788 [3]; 8 µM in the assay with E. faecalis NCTC 12697; 8 µM in the assay with C. albicans NCTC 10231; 4 µM (≈ 6.28 µg/mL) against MRSA NCTC 12493. Also, the MIC with K. pneumoniae ATCC 43816 is 32 µM. For the same molecule, the MBEC in assay [2] stood at 64 µM. The MBIC in assay [2] came out at 32 µM; in [4], 4 µM.
In the case of `CC[C@H](C)[C@H](NC(=O)[C@H](C)NC(=O)CNC(=O)CNC(=O)[C@@H](NC(=O)[C@H](CC(C)C)NC(=O)[C@H](C)NC(=O)[C@H](CC(C)C)NC(=O)[C@H](C)NC(=O)[C@H](CC(C)C)NC(=O)[C@@H](N)Cc1ccccc1)[C@@H](C)CC)C(=O)N[C@@H](C)C(=O)N[C@@H](CCCCN)C(=O)N[C@@H](CC(C)C)C(=O)N[C@@H](CCCCN)C(N)=O` [QUB-1498] (H-FLALALIGGAIAKLK-NH2), the MBC with P. aeruginosa ATCC 27853 was > 128 µM; in the assay on E. coli NCTC 10418, > 128 µM; in the assay on S. aureus NCTC 10788 [3], 16 µM; in the assay with E. faecalis NCTC 12697, 64 µM; in the assay on C. albicans NCTC 10231, > 128 µM; with MRSA NCTC 12493, > 128 µM. Also, in the assay on K. pneumoniae ATCC 43816, the MBC is > 128 µM. In addition, the MIC with P. aeruginosa ATCC 27853 was > 128 µM; in the assay with E. coli NCTC 10418 it was 32 µM; in the assay with S. aureus NCTC 10788 [3], 16 µM; in the assay with E. faecalis NCTC 12697 it was 32 µM; in the assay on C. albicans NCTC 10231 it was 32 µM; in the assay with MRSA NCTC 12493, 128 µM (≈ 192 µg/mL). Also, the MIC with K. pneumoniae ATCC 43816 is > 128 µM. Also, the MBEC in assay [2] is >128/>128 µM; in assay [4], 128 µM. The MBIC in assay [2] was >128/>128 µM.

Values taken from paper PMC8868508, “Kassporin-KS1: A Novel Pentadecapeptide from the Skin Secretion of Kassina senegalensis: Studies on the Structure-Activity Relationships of Site-Specific “Glycine-Lysine” Motif Insertions” (Antibiotics, 2022).
